These results are taken from ChEMBL document CHEMBL1122660 (J Med Chem, 1984).

Data set [1] relates to P388. Description: Maximum percent T/C (antitumor activity) against P388 leukemia cells. It is filed as functional, Mus musculus.
For data set [2], the species on record is Mus musculus. Put plainly: Maximum percent T/C (antitumor activity) against P388 leukemia cells for Mitomycin C. The number of 30-day survivors is given in the parenthesis. It is filed as functional.
The test system of data set [3] is P388. Description: Minimum effective dose against P388 leukemic cells. It is filed as functional. To be noted: Mus musculus, read-out: MED.
Data set [4] concerns P388. Description: Ratio of optimal dose (OD) and minimum effective dose (MED) required for antitumor activity in mice bearing P-388 lymphocytic leukemia. It is filed as functional, Mus musculus.
Data set [5] deals with P388. Description: Optimum dose (mg/kg) against P388 leukemic cells. It is filed as functional, Mus musculus.
A short description of data set [6]: Partition coefficient between 1-octanol and water containing phosphate buffer at pH 7.4. Type of data set: physicochemical. To be noted: 1-octanol/water containing phosphate buffer.
Data set [7] is described as follows: Distribution between 1-octanol and water containing phosphate buffer at pH 7.4. To be noted: 1-octanol/water containing phosphate buffer. It is filed as physicochemical.
Data set [8] has as its system P388. Put plainly: Maximum percent T/C (antitumor activity) against P388 leukemia cells for Mitomycin C. It is filed as functional, Mus musculus.
For data set [9], the species on record is Mus musculus. Description: Percentage change in WBC at optimum dose on day 3. Type of data set: functional.
Data set [10] is filed under the species Mus musculus. Description: Maximum percent T/C (antitumor activity) against P388 leukemia cells for the compound. The number of 30-day survivors is given in the parenthesis. Type of data set: functional.

As to `COC12[C@@H]3N[C@@H]3CN1C1=C(C(=O)C(Nc3ccc(Cl)cc3)=C(C)C1=O)[C@@H]2COC(N)=O` (some centres undefined), the T/C stood at 144% in the data set with P388 [1] and 250% in the data set filed under Mus musculus [2]. Besides, the minimal effective dose in the data set with P388 [3] was 6.4 mg/kg. In addition, the Therapeutic ratio in the data set on P388 [4] was 4. In the data set with P388 [5], the OD was 25.6 mg/kg. The same compound displayed a logD in data set [6] of 2.01.

For the compound `COC12[C@@H]3N[C@@H]3CN1C1=C(C(=O)C(Nc3nc(C)c(C)s3)=C(C)C1=O)[C@@H]2COC(N)=O` (some centres undefined), the T/C in the data set with P388 [1] was determined as 188%; in the data set with P388 [8], 219%. In the data set with P388 [3], the minimal effective dose amounted to 0.2 mg/kg. In data set [7], this compound registered a pH-dependent lipophilicity (logD) of 1.29. Moreover, the Therapeutic ratio in the data set on P388 [4] came to 128. The same compound gave an OD in the data set with P388 [5] of 25.6 mg/kg.

For the compound `COC12[C@@H]3N[C@@H]3CN1c1c(O)c(C)c(/N=C3/C=CC(=N)N=C3)c(O)c1[C@@H]2COC(N)=O` (some centres undefined), the values for the T/C with P388 [1] and in the data set with P388 [8] were 277% and 206%, respectively. In addition, the minimal effective dose in the data set with P388 [3] worked out at 0.4 mg/kg. The logD in [7] was -0.32. Besides, the Therapeutic ratio in the data set on P388 [4] stood at 32. For the same compound, the OD in the data set with P388 [5] came to 12.8 mg/kg.

On to `COc1ccc(NC2=C(C)C(=O)C3=C(C2=O)[C@H](COC(N)=O)C2(OC)[C@@H]4N[C@@H]4CN32)cc1` (some centres undefined), for which the T/C turned out to be 268% in the data set filed under Mus musculus [2] and 316% in the data set filed under Mus musculus [10]. In addition, in the data set listed under Mus musculus [9], the Change is -76%. Moreover, the Therapeutic ratio with P388 [4] came out at 16. In addition, in the data set with P388 [5], the OD is 12.8 mg/kg. In [6], this compound registered a logD of 1.28.

Consider `COC12[C@@H]3N[C@@H]3CN1C1=C(C(=O)C(N=C3C=CC(=Nc4c(C)c(O)c5c(c4O)[C@H](COC(N)=O)C4(OC)[C@@H]6N[C@@H]6CN54)C=C3)=C(C)C1=O)[C@@H]2COC(N)=O` (some centres undefined), for which the T/C worked out at 161% in the data set with P388 [1] and 250% in the data set filed under Mus musculus [2]. Further, the minimal effective dose in the data set on P388 [3] was 1.6 mg/kg. Further, in the data set on P388 [4], the Therapeutic ratio is listed as 8. Moreover, the OD in the data set with P388 [5] stood at 25.6 mg/kg.

For `COC12[C@@H]3N[C@@H]3CN1C1=C(C(=O)C(Nc3nc4cc(Cl)ccc4o3)=C(C)C1=O)[C@@H]2COC(N)=O` (some centres undefined), the T/C in the data set with P388 [1] stood at 178%; in the data set with P388 [8], 267%. Further, the Change in the data set filed under Mus musculus [9] is -33%. Also, the minimal effective dose in the data set with P388 [3] stood at 1.6 mg/kg. The Therapeutic ratio in the data set with P388 [4] was 16. Moreover, in the data set on P388 [5], the OD came to 25.6 mg/kg.

Take `COc1ccc(NC2=C(C)C(=O)C3=C(C2=O)[C@H](COC(N)=O)C2(OC)[C@@H]4N[C@@H]4CN32)cn1` (some centres undefined): the values for the T/C with P388 [1] and with P388 [8] were 211% and 233%, respectively. Also, in the data set filed under Mus musculus [9], the Change is listed as -45%. Besides, the minimal effective dose in the data set on P388 [3] came out at 0.2 mg/kg. The compound also showed a pH-dependent lipophilicity (logD) in data set [7] of 0.59. The Therapeutic ratio in the data set with P388 [4] came to 32. This compound also displayed an OD in the data set on P388 [5] of 6.4 mg/kg.

`COC12[C@@H]3N[C@@H]3CN1C1=C(C(=O)C(Nc3nc(C)cs3)=C(C)C1=O)[C@@H]2COC(N)=O` (some centres undefined): the results for the T/C in the data set on P388 [1] and with P388 [8] were 172% and 224%, respectively. Further, the minimal effective dose in the data set on P388 [3] was 0.4 mg/kg. In data set [7], this compound had a pH-dependent lipophilicity (logD) of 1.16. Further, the Therapeutic ratio in the data set on P388 [4] was 16. This compound also had an OD in the data set with P388 [5] of 6.4 mg/kg.

Turning to `[H][C@@]12CN3c4c(O)c(C)c(/N=C5C=C/C(=N\CC(=O)O)C=C/5)c(O)c4[C@H](COC(N)=O)C3(OC)[C@]1([H])N2` (some centres undefined), the results for the T/C in the data set filed under Mus musculus [2] and in the data set filed under Mus musculus [10] were 294% and 322%, respectively. Moreover, the minimal effective dose with P388 [3] was 0.8 mg/kg. Moreover, the Therapeutic ratio with P388 [4] was 32. The same compound registered an OD in the data set with P388 [5] of 25.6 mg/kg. The logD in data set [6] is -0.78.

For `COC12[C@@H]3N[C@@H]3CN1c1c(O)c(C)c(/N=C3/C=CN=N3)c(O)c1[C@@H]2COC(N)=O` (some centres undefined), in the data set listed under Mus musculus [9], the Change is -15%. In the data set with P388 [3], the minimal effective dose is 0.8 mg/kg. The compound further showed an OD in the data set on P388 [5] of 25.6 mg/kg. Besides, the T/C in the data set on P388 [8] worked out at 161%; in the data set listed under Mus musculus [10], 333%.

Take `COC12[C@@H]3N[C@@H]3CN1c1c(O)c(C)c(N=C3C=CC(=O)C=C3)c(O)c1[C@@H]2COC(N)=O` (some centres undefined): the T/C was >300% with P388 [1] and 144% in the data set on P388 [8]. The Change in the data set listed under Mus musculus [9] is listed as -27%. Further, the minimal effective dose with P388 [3] turned out to be 0.2 mg/kg. Moreover, in the data set on P388 [4], the Therapeutic ratio came out at 128. In addition, the OD in the data set on P388 [5] was 25.6 mg/kg. In [6], this compound had a logD of 0.63.

`COC12[C@@H]3N[C@@H]3CN1c1c(O)c(C)c(N=C3C=CC(=N)C=C3)c(O)c1[C@@H]2COC(N)=O` (some centres undefined): the T/C in the data set listed under Mus musculus [2] is recorded as 250%; in the data set filed under Mus musculus [10] it was >337%. In addition, the Change in the data set filed under Mus musculus [9] is recorded as -64%. The minimal effective dose in the data set on P388 [3] is < 0.2 mg/kg. Also, the Therapeutic ratio in the data set on P388 [4] was >64. Also, the OD with P388 [5] stood at 12.8 mg/kg. The same compound had a logD in data set [6] of 0.07.

In the case of `COC12[C@@H]3N[C@@H]3CN1C1=C(C(=O)C(Nc3cc(C)ns3)=C(C)C1=O)[C@@H]2COC(N)=O` (some centres undefined), the results for the T/C with P388 [1] and in the data set on P388 [8] were 169% and 325%, respectively. Moreover, in data set [7], the logD was -0.3. For the same compound, in the data set with P388 [4], the Therapeutic ratio is on record as 32. For the same compound, the OD in the data set on P388 [5] is 25.6 mg/kg.

As for `COC12[C@@H]3N[C@@H]3CN1C1=C(C(=O)C(Nc3nccs3)=C(C)C1=O)[C@@H]2COC(N)=O` (some centres undefined), the T/C with P388 [1] is listed as 194%; in the data set with P388 [8] it was 281%. The Change in the data set listed under Mus musculus [9] is recorded as -22%. In addition, the minimal effective dose with P388 [3] was determined as 0.4 mg/kg. Also, the logD in data set [7] turned out to be 0.62. Further, the Therapeutic ratio with P388 [4] was 32. The compound also gave an OD with P388 [5] of 6.4 mg/kg.

In the case of `COC12[C@@H]3N[C@@H]3CN1C1=C(C(=O)C(Nc3cccnc3)=C(C)C1=O)[C@@H]2COC(N)=O` (some centres undefined), the results for the T/C in the data set on P388 [1] and with P388 [8] were 211% and 198%, respectively. Also, the Change in the data set listed under Mus musculus [9] is -33%. Besides, the minimal effective dose with P388 [3] is 0.2 mg/kg. The same compound registered a pH-dependent lipophilicity (logD) in data set [7] of 0.52. Further, the Therapeutic ratio with P388 [4] amounted to 16. Further, in the data set with P388 [5], the OD amounted to 3.2 mg/kg.

As to `COC12[C@@H]3N[C@@H]3CN1C1=C(C(=O)C(Nc3cccc(N)c3)=C(C)C1=O)[C@@H]2COC(N)=O` (some centres undefined), the figures for the T/C in the data set with P388 [1] and in the data set on P388 [8] were 222% and 200%, respectively. In the data set listed under Mus musculus [9], the Change is on record as -17%. Besides, the minimal effective dose with P388 [3] is < 0.2 mg/kg. Moreover, the Therapeutic ratio in the data set on P388 [4] is given as >8. In the data set with P388 [5], the OD came out at 1.6 mg/kg. Besides, the log distribution coefficient (logD) in data set [6] was found to be 0.07.

In the case of `COC12[C@@H]3N[C@@H]3CN1C1=C(C(=O)C(Nc3ccc(C)cc3)=C(C)C1=O)[C@@H]2COC(N)=O` (some centres undefined), the T/C with P388 [1] turned out to be 206%; in the data set on P388 [8] it was 200%. Further, the Change in the data set listed under Mus musculus [9] is listed as -37%. Further, in the data set on P388 [4], the Therapeutic ratio amounted to 32. Moreover, the log distribution coefficient (logD) in data set [6] stood at 1.86.
